# ChEMBL document CHEMBL1201862, “PubChem BioAssay data set” (2004)
# Active and inactive are the calls of the source.
# Target: T1, Corticotropin-releasing factor receptor 2/Corticotropin-releasing factor-binding protein (Homo sapiens, UniProt P24387+Q13324)
# T1 sequence (Q13324 whole entry): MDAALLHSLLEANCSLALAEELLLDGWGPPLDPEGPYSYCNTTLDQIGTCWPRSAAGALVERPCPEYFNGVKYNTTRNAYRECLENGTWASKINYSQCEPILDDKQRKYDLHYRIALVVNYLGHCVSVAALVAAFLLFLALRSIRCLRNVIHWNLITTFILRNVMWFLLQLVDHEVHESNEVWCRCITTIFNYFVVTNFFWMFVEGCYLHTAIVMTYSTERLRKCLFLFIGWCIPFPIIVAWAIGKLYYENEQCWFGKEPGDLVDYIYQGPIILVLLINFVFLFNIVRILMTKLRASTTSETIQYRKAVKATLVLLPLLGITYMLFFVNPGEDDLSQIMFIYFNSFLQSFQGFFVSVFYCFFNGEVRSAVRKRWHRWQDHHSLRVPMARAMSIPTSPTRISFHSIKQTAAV
# T1 sequence (P24387 whole entry): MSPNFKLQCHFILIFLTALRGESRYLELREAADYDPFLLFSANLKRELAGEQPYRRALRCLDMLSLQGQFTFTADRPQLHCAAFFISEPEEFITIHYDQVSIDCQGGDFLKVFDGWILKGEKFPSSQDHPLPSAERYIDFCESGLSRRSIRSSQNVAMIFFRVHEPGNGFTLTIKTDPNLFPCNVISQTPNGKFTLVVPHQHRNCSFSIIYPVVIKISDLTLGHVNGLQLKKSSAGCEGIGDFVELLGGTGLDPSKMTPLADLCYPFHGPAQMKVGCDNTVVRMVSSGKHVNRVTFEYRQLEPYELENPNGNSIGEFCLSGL
# Test: Dose Response confirmation of uHTS hits for small molecule antagonists of the CRF-binding protein and CRF-R2 receptor complex.
# Format: functional
# Details: read-out: IC50_Mean
row,Compound,IC50
1,Cc1ccnc(NC(=O)c2cccc(S(=O)(=O)N3CCCC3)c2)c1,> 47.1 µM (inactive)
2,O=C(NCC1CCCO1)c1onc(CSc2cccc3ccccc23)c1C(=O)O (configuration not stated),> 47.1 µM (inactive)
3,CCC(CC)NC(=O)CC(c1ccccc1)c1ccccc1,> 47.1 µM (inactive)
4,Cc1onc(-c2ccccc2)c1C(=O)N/N=C/c1cc(Br)c(Br)o1,> 47.1 µM (inactive)
5,COc1ccc(CCNC(=O)C(=O)NCC2OCCN2S(=O)(=O)c2ccc(OC)cc2)cc1 (configuration not stated),> 47.1 µM (inactive)
6,Cc1c(Cl)c([N+](=O)[O-])nn1CCCC(=O)Nc1cc(Oc2ccccc2)cc([N+](=O)[O-])c1,> 47.1 µM (inactive)
7,CCOC(=O)c1cc2c(=O)c3cc(C)ccc3oc2nc1C,> 47.1 µM (inactive)
8,CC(C)CN(CC(C)C)C(=O)CCCC(=O)N(CC(C)C)CC(C)C,> 47.1 µM (inactive)
9,CN(C)C(=O)C1CC(=O)OC12CCCCC2 (configuration not stated),> 47.1 µM (inactive)
10,CC1C(=O)N(Cc2cn(CCC3OCCCO3)nn2)CCS(=O)(=O)N1Cc1ccc(-c2ccc(Cl)cc2)cc1 (configuration not stated),> 47.1 µM (inactive)
11,CC(=O)NCc1ccc(C(=O)O)cc1,> 47.1 µM (inactive)
12,Cc1nn(C)cc1CN(C)C(=O)c1ccc(OC2CCN(Cc3ccccn3)CC2)cc1,> 47.1 µM (inactive)
13,Cc1ccc(Cl)cc1N(CC(=O)N1CCOCC1)S(C)(=O)=O,> 47.1 µM (inactive)

# Test system: not listed separately
# Test: Luminescence Cell-Based Dose Retest to Confirm Inhibitors of Cancer Stem Cells. [Related pubchem assays (depositor defined):AID2717, AID2721]
# Format: functional
# Details: Homo sapiens
row,Compound,AC50
1,O=c1cc(N2CCCCC2)c(-c2ccccc2)nn1Cc1ccc(Cl)cc1,2.33 µM (active)
2,Cc1ccc(S(=O)(=O)N2CCN(C(=O)COc3ccc(NC(=O)c4ccco4)cc3)CC2)cc1,> 195 µM (inactive)
3,CC(C)(C)OC(=O)NCc1ccc(NC(=O)c2[nH]cnc2C(=O)NCCCNC(=O)c2nc[nH]c2C(=O)Nc2ccc(CNC(=O)OC(C)(C)C)cc2)cc1,1.75 µM (active)
4,CC(=O)Oc1ccc(-c2csc(Nc3cccc(C)n3)n2)cc1,6.58 µM (active)
5,O=c1c2ccccc2nc(/C=C/c2ccccc2)n1-c1ccccc1O,4.57 µM (active)
6,C=C(CC[C@@H](O)C(C)(C)O)[C@H]1CC[C@]2(C)[C@@H]1CC[C@@H]1[C@@]3(C)CCC(=O)C(C)(C)C3CC[C@]12C (some centres not stated),1.75 µM (active)
7,CCOc1ccc(C(=O)CCC(=O)N2CCN(c3ccc(O)cc3)CC2)cc1,5.57 µM (active)
8,Cc1cccc(-c2cc3nc4c(c(NCc5ccco5)n3n2)CCCC4)c1,7.11 µM (active)
9,FC(F)(F)c1cc(CCN2C(S)=NC[C@@H]2CC2CCCCC2)cc(C(F)(F)F)c1,5.79 µM (active)

# Target: T2, Rac GTPase-activating protein 1 (Homo sapiens, UniProt Q9H0H5)
# T2 sequence (Q9H0H5 whole entry): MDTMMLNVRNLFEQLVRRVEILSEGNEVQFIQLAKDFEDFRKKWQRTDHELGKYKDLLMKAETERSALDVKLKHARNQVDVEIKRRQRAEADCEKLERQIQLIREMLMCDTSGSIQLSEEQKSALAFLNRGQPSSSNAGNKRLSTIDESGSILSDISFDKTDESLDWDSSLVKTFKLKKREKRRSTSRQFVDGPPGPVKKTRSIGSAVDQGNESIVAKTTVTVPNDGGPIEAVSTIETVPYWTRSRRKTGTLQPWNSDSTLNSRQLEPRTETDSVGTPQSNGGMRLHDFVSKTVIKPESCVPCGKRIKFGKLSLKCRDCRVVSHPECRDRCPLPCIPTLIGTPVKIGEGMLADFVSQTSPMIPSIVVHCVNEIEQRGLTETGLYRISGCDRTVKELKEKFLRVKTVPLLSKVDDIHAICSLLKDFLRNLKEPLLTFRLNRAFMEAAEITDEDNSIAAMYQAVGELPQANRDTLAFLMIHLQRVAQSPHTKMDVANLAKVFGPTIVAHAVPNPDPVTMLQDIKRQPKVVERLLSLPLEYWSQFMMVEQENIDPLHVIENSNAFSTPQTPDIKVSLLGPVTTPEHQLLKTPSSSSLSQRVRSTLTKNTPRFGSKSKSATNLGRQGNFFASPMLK
# Test: MgcRacGAP GTPase-activating activity inhibitors, confirmation, biochemical, ADP Hunter fluorescence, primary and confirmatory (AID 624330)
# Format: functional
# Details: not given
row,Compound,IC50
1,CCN(Cc1ccncc1)Cc1ccc(OC)cc1OC,117 µM (active)
2,Cc1ccc(OCCN2CCN(C)CC2)c([N+](=O)[O-])c1,75.4 µM (active)
3,COc1ccc(N)cc1NC(=O)CN1CCOCC1,118 µM (active)
4,COc1ncnc2c1ncn2CCCNc1ccc(C)c(C)c1,102 µM (active)
5,COc1ccc(NC2CCCN(C(=O)c3cccc(N4CCNC4=O)c3)C2)cc1 (configuration not stated),75.2 µM (active)
6,COc1ccc(N2CCC(CN=C(S)Nc3cc(C)cc(C)c3)C2)cc1 (configuration not stated),108 µM (active)
7,COc1ccccc1CNCC(=O)NCc1ccc(C)cc1,163 µM (active)
8,OCCN(/C=N/C1=NN(c2cccc(C(F)(F)F)c2)CC1)CCO,30.9 µM (active)
9,COc1ccc2oc(=O)c(C(=O)Oc3ccc(NC(C)=O)cc3)cc2c1,24.5 µM (active)
10,Nc1ccc2[nH]c(S)nc2c1,19.4 µM (active)

# Test system: INS1
# Test: beta cell apoptosis inhibitors, cytokine rescue, dose response, luminescence, retest (AID 449756);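 further: cell death triggered by IL-1 beta plus TNF-alpha plus IFN-gamma mixture; protective hits raise ATP signal compared with cytokine alone wells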
# Format: functional, cell-based
# Details: Rattus norvegicus
row,Compound,AC50
1,COc1ncnc(OC)c1S(=O)(=O)Nc1ccc(C(F)(F)F)cc1,> 260 µM (inactive)
2,O=C(c1cc(-c2cccc(Cl)c2)nc2ccccc12)N1CCN(c2ccccn2)CC1,14.8 µM (active)
3,Cc1c(C(=O)Nc2nc(-c3ccccn3)cs2)oc2ccccc12,5.62 µM (active)

# Target: Cytochrome P450 2C9 (Homo sapiens, UniProt P11712)
# Sequence (P11712 whole entry): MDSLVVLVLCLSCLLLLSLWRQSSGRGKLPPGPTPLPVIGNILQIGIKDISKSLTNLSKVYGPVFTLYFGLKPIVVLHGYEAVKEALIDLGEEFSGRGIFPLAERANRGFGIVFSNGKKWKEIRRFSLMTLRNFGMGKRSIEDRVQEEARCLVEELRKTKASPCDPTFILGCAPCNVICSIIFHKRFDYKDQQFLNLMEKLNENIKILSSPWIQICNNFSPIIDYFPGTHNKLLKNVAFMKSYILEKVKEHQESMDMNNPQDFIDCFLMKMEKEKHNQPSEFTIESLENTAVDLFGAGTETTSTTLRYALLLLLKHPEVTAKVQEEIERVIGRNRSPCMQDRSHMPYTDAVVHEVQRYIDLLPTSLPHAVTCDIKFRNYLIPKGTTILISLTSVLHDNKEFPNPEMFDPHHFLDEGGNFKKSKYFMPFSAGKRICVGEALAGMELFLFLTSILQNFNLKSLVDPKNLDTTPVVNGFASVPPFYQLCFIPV
# Details: not given
row,Compound,AC50
1,CC(C)(C)OC(=O)NCCc1nnc(SCC(=O)Nc2cccc(Cl)c2)o1,25.1 µM (inconclusive)
2,CCC/C=C(\CCC)C(NS(=O)(=O)c1ccc(-c2ccccc2)cc1)c1ccc(C(=O)OC)cc1 (configuration not stated),3.16 µM (inconclusive)
3,OCCN(/C=N/C1=NN(c2cccc(C(F)(F)F)c2)CC1)CCO,0.0224 µM (inconclusive)
4,COc1ccc2oc(=O)c(C(=O)Oc3ccc(NC(C)=O)cc3)cc2c1,39.8 µM (inconclusive)

# Test system: Streptococcus
# Test: Group A Streptococcus viability loss, dose response, counter-screen for streptokinase expression inhibitor project, luminescence, BacTiterGlo (AID 1915);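 further: potency for reduction of bacterial viability or growth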
# Format: functional, organism-based
# Details: not given
row,Compound,EC50
1,FC(F)(F)c1cc(CCN2C(S)=NC[C@@H]2CC2CCCCC2)cc(C(F)(F)F)c1,> 150 µM (not active)

# Target: T1, Corticotropin-releasing factor receptor 2/Corticotropin-releasing factor-binding protein
# Test: activators of CRF receptor 2 with binding protein – uHTS hits, confirmation (AID 602473)
# Format: functional
# Details: read-out: EC50_Mean
row,Compound,EC50
1,Cc1ccnc(NC(=O)c2cccc(S(=O)(=O)N3CCCC3)c2)c1,> 53 µM (inactive)
2,O=C(NCC1CCCO1)c1onc(CSc2cccc3ccccc23)c1C(=O)O (configuration not stated),> 53 µM (inactive)
3,CCC(CC)NC(=O)CC(c1ccccc1)c1ccccc1,> 53 µM (inactive)
4,Cc1onc(-c2ccccc2)c1C(=O)N/N=C/c1cc(Br)c(Br)o1,> 53 µM (inactive)
5,COc1ccc(CCNC(=O)C(=O)NCC2OCCN2S(=O)(=O)c2ccc(OC)cc2)cc1 (configuration not stated),> 53 µM (inactive)
6,Cc1c(Cl)c([N+](=O)[O-])nn1CCCC(=O)Nc1cc(Oc2ccccc2)cc([N+](=O)[O-])c1,> 53 µM (inactive)
7,CCOC(=O)c1cc2c(=O)c3cc(C)ccc3oc2nc1C,> 53 µM (inactive)
8,CC(C)CN(CC(C)C)C(=O)CCCC(=O)N(CC(C)C)CC(C)C,> 53 µM (inactive)
9,CN(C)C(=O)C1CC(=O)OC12CCCCC2 (configuration not stated),> 53 µM (inactive)
10,CC1C(=O)N(Cc2cn(CCC3OCCCO3)nn2)CCS(=O)(=O)N1Cc1ccc(-c2ccc(Cl)cc2)cc1 (configuration not stated),> 53 µM (inactive)
11,CC(=O)NCc1ccc(C(=O)O)cc1,> 53 µM (inactive)
12,Cc1nn(C)cc1CN(C)C(=O)c1ccc(OC2CCN(Cc3ccccn3)CC2)cc1,> 53 µM (inactive)
13,Cc1ccc(Cl)cc1N(CC(=O)N1CCOCC1)S(C)(=O)=O,> 53 µM (inactive)

# Target: Cytochrome P450 3A4 (Homo sapiens, UniProt P08684);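 further: CYP3A4 tested as one member of a cytochrome P450 panel screen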
# Sequence (P08684 whole entry): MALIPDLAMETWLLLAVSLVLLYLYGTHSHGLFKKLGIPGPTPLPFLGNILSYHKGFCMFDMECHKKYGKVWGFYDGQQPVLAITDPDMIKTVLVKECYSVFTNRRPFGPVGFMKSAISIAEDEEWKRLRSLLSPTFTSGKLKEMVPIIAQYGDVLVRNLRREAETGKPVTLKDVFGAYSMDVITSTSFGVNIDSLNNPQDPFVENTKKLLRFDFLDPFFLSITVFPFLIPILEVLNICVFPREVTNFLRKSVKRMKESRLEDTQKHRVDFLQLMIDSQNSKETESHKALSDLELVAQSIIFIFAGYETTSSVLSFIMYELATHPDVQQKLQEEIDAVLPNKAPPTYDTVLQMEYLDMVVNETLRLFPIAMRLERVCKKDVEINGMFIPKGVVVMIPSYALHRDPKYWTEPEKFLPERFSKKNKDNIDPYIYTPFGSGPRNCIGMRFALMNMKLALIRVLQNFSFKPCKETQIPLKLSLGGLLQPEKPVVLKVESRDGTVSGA
# Details: not given
row,Compound,AC50
1,OCCN(/C=N/C1=NN(c2cccc(C(F)(F)F)c2)CC1)CCO,14.1 µM (inconclusive)
2,COc1cc2c(cc1O)[C@H]1Cc3ccc(OC)c(O)c3CN1CC2,12.6 µM (inconclusive)

# Target: T3, Cytochrome P450 1A2 (Homo sapiens, UniProt P05177);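 further: PubChem cytochrome P450 panel assay, CYP1A2 panel member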
# T3 sequence (P05177 whole entry): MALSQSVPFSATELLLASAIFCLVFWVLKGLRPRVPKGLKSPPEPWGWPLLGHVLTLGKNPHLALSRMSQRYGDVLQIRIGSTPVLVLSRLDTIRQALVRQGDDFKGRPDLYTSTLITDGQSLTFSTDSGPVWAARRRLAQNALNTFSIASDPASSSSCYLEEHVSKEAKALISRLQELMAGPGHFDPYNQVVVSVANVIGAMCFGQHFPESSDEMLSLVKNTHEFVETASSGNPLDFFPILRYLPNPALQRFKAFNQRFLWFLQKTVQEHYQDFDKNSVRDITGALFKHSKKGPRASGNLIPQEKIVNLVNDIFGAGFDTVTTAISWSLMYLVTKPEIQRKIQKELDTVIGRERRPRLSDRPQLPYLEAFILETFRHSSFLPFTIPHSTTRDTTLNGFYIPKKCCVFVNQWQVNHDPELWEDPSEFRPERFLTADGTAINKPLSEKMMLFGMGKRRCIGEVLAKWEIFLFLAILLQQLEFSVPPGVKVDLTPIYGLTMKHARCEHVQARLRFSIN
# Details: not given
row,Compound,AC50
1,CC(C)(C)OC(=O)NCCc1nnc(SCC(=O)Nc2cccc(Cl)c2)o1,25.1 µM (inconclusive)
2,O=C(COc1cccc(NC(=O)c2cccc([N+](=O)[O-])c2)c1)c1ccc(Br)cc1,5.62 µM (inconclusive)
3,CCC/C=C(\CCC)C(NS(=O)(=O)c1ccc(-c2ccccc2)cc1)c1ccc(C(=O)OC)cc1 (configuration not stated),6.31 µM (inconclusive)
4,O=C(Oc1ccccc1)N1CCC[C@@]2(CCN(c3ccncc3)C2)C1,20 µM (inconclusive)
5,CCC/C=C(\CCC)C(NC(=O)Cc1ccccc1)c1ccc(C(=O)OC)cc1 (configuration not stated),15.8 µM (inconclusive)
6,COc1cc2c(cc1O)[C@H]1Cc3ccc(OC)c(O)c3CN1CC2,15.8 µM (inconclusive)

# Target: Cytochrome P450 2C19 (Homo sapiens, UniProt P33261)
# Sequence (P33261 whole entry): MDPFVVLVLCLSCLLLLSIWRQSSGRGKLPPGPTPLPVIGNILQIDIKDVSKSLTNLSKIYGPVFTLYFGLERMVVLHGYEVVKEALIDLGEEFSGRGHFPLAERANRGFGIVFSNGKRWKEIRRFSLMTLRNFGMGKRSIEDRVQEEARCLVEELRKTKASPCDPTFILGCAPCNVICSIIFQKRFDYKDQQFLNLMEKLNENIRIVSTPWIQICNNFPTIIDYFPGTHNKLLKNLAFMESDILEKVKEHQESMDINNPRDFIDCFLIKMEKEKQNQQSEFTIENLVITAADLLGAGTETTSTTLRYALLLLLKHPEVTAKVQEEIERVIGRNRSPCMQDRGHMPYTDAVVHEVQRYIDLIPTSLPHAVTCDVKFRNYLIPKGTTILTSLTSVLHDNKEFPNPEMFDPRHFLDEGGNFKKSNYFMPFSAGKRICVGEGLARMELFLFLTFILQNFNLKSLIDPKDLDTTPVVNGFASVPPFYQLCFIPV
# Test: Cytochrome panel assay with activity outcomes. Panel member name: p450-cyp2c19 Compounds with AC50 equal or less than 10 uM are considered active
# Format: functional
# Details: read-out: AC50
row,Compound,AC50
1,COc1cc2c(cc1O)[C@H]1Cc3ccc(OC)c(O)c3CN1CC2,7.94 µM (inconclusive)

# Test system: Streptococcus sp. 'group A'
# Test: growth inhibition of control SK(-) GAS strain, dose response, counter-screen for streptokinase expression inhibitor project, luminescence, kanamycin, BacTiterGlo, confirmation (AID 1900)
# Format: functional, organism-based
# Details: not given
row,Compound,EC50
1,FC(F)(F)c1cc(CCN2C(S)=NC[C@@H]2CC2CCCCC2)cc(C(F)(F)F)c1,5.13 µM (active)

# Target: Cytochrome P450 2D6 (Homo sapiens, UniProt P10635);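 further: CYP2D6 member of a cytochrome P450 panel assay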
# Sequence (P10635 whole entry): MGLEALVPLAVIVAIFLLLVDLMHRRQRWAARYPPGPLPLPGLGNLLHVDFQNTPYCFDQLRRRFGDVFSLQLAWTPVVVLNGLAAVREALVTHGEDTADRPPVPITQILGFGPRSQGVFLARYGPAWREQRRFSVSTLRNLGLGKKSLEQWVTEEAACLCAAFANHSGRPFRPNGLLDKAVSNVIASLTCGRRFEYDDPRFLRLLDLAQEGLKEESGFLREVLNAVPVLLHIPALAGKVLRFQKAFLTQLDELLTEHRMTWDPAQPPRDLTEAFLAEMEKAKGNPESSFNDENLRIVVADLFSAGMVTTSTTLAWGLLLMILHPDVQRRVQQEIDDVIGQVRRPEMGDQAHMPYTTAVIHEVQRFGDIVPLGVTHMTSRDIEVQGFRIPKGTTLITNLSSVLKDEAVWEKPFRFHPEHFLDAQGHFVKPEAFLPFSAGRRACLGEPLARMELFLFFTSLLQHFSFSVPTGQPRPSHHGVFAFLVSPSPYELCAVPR
# Details: not given
row,Compound,AC50
1,O=C(COc1cccc(NC(=O)c2cccc([N+](=O)[O-])c2)c1)c1ccc(Br)cc1,3.16 µM (inconclusive)
2,CCC/C=C(\CCC)C(NS(=O)(=O)c1ccc(-c2ccccc2)cc1)c1ccc(C(=O)OC)cc1 (configuration not stated),39.8 µM (inconclusive)
3,O=C(Oc1ccccc1)N1CCC[C@@]2(CCN(c3ccncc3)C2)C1,20 µM (inconclusive)
4,CCC/C=C(\CCC)C(NC(=O)Cc1ccccc1)c1ccc(C(=O)OC)cc1 (configuration not stated),5.01 µM (inconclusive)
